According to ChEMBL document CHEMBL1909046, “DrugMatrix in vitro pharmacology data”:

Assays:
[1] = target: T1, Cholecystokinin receptor type A (Homo sapiens, UniProt P32238); assay type: cell membranes, Membrane; conditions: 1321-n1; note: in other assays of this panel Not Active means under 50% inhibition at 10 µM
T1 sequence (P32238 whole entry): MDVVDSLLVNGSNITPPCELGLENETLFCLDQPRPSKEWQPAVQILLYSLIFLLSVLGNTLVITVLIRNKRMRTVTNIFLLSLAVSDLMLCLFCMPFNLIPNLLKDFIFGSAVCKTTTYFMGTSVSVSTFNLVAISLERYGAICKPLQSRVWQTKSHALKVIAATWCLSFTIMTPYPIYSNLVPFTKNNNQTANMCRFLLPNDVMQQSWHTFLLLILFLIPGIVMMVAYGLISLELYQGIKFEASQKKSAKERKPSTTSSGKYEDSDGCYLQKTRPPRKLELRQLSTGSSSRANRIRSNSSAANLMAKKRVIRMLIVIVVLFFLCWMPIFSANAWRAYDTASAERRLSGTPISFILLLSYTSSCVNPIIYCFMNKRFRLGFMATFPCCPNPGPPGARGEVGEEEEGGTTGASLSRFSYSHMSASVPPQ

Melanocortin receptor 3 = Melanocortin receptor 3 (Homo sapiens, UniProt P41968); assay type: cell membranes, HEK293, Membrane; conditions: hek293; note: in other assays of this panel Not Active means under 50% inhibition at 10 µM
Chain of Melanocortin receptor 3 (P41968 whole entry): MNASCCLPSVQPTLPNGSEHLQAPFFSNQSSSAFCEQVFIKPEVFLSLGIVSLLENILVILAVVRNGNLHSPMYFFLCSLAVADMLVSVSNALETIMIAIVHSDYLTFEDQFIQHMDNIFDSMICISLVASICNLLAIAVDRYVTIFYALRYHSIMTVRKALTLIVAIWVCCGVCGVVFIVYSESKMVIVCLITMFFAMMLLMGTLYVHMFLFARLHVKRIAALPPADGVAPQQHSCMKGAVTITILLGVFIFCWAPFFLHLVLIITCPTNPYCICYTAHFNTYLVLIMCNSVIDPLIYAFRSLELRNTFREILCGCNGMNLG

[2] = DRUGMATRIX: Phosphodiesterase PDE3 enzyme inhibition (substrate: [3H]cAMP + cAMP); assay type: tissue-based, Homo sapiens; conditions: platelet; Not Active = under 50% inhibition at 10 µM
Cathepsin G = target: T2, Cathepsin G (Homo sapiens, UniProt P08311); test: biochemical; assay type: tissue-based, Neutrophil; conditions: neutrophil;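 note: inhibition of Cathepsin G enzyme activity, tested on an AMC-conjugated peptide substrate; in other assays of this panel Not Active means under 50% inhibition at 10 µM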
T2 sequence (P08311 whole entry): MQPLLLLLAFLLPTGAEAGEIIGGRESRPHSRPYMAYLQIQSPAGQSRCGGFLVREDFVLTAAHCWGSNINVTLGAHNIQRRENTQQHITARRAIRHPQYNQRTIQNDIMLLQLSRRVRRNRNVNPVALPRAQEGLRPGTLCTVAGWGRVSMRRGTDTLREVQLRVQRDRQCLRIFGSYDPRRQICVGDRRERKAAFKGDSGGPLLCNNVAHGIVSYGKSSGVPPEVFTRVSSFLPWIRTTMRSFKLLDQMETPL

[3] = target: Protein kinase C alpha type (Homo sapiens, UniProt P17252); assay type: cell-based; conditions: sf9;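 note: inhibition of PKCalpha kinase activity measured in an enzyme assay with histone as the phosphorylation substrate; in other assays of this panel Not Active means under 50% inhibition at 10 µM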
[4] = target: Epidermal growth factor receptor (Homo sapiens, UniProt P00533); test: DRUGMATRIX: Protein Tyrosine Kinase, EGF Receptor enzyme inhibition (substrate: Poly(Glu:Tyr)); assay type: cell-based, Insect cells; conditions: Not Active = under 50% inhibition at 10 µM
Chain of Epidermal growth factor receptor (P00533 whole entry): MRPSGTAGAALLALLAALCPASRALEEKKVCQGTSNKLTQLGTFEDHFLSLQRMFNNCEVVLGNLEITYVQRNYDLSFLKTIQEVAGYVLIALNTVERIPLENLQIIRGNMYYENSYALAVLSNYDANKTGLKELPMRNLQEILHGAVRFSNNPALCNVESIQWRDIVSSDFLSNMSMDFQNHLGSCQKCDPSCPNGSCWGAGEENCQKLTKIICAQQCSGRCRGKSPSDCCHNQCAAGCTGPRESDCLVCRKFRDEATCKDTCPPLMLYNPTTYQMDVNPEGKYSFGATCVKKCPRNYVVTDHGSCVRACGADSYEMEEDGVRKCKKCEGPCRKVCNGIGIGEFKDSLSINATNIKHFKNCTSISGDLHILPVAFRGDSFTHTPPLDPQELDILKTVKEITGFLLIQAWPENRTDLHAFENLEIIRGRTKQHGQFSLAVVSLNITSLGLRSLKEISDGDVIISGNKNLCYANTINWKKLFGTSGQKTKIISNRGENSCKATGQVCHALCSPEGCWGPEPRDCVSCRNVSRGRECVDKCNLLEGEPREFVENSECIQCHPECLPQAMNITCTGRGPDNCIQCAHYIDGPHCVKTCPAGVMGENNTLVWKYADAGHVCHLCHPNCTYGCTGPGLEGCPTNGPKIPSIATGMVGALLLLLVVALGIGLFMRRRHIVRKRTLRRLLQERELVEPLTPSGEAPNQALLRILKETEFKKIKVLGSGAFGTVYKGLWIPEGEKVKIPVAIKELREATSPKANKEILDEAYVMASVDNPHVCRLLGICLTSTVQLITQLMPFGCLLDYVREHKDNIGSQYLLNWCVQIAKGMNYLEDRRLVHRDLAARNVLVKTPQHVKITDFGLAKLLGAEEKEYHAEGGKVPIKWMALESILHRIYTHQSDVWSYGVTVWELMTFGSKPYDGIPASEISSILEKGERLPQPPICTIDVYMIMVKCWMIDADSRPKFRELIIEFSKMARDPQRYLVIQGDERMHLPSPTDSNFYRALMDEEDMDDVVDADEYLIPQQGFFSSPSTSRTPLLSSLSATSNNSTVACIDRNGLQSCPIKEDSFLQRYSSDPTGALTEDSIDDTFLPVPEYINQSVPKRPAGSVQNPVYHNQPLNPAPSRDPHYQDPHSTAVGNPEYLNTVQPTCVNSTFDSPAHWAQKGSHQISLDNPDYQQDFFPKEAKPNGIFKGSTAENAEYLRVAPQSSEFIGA

[5] = target: 5-hydroxytryptamine receptor 1B (Rattus norvegicus, UniProt P28564); assay type: cell membranes, Wistar, Cerebral cortex, Membrane; note: in other assays of this panel Not Active means under 50% inhibition at 10 µM
Chain of 5-hydroxytryptamine receptor 1B (P28564 whole entry): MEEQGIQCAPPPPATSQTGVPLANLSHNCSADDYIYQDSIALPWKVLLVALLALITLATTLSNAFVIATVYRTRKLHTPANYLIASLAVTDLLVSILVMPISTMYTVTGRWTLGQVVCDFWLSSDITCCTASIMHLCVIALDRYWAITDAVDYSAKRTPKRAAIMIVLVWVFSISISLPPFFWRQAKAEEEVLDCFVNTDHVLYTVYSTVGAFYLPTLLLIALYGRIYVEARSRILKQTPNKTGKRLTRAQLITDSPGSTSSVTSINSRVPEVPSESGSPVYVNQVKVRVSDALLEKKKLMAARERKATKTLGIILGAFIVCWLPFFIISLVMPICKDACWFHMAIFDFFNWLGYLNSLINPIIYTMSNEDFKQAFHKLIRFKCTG

Row | Structure (SMILES) | IC50 [1] | IC50 (Melanocortin receptor 3) | IC50 [2] | Ki [2] | IC50 (Cathepsin G) | IC50 [3] | IC50 ([4]; insect cells) | IC50 [5] | IC50 ([4]; read-out: IC50) [µM]
1 | COc1cc(NC(C)CCCN)c2ncccc2c1 (stereo not given) [PRIMAQUINE] | Not Active | Not Active | Not Active | Not Active | Not Active | Not Active | Not Active | Not Active | –
2 | COc1ccc(Cl)cc1C(=O)NCCc1ccc(S(=O)(=O)NC(=O)NC2CCCCC2)cc1 [GLYBURIDE] | Not Active | Not Active | Not Active | Not Active | Not Active | Not Active | Not Active | Not Active | –
3 | CCO [ALCOHOL] | Not Active | Not Active | Not Active | Not Active | Not Active | Not Active | Not Active | Not Active | –
4 | CC(C)(c1ccc(O)cc1)c1ccc(O)cc1 [BISPHENOL A] | Not Active | Not Active | Not Active | Not Active | Not Active | Not Active | Not Active | Not Active | –
5 | CC12CCC(CC1=O)C2(C)C (stereo not given) [CAMPHOR] | Not Active | Not Active | Not Active | Not Active | Not Active | Not Active | Not Active | Not Active | –
6 | O=C(O)c1ccccc1 [BENZOIC ACID] | Not Active | Not Active | Not Active | Not Active | Not Active | Not Active | Not Active | Not Active | –
7 | Oc1ncnc2[nH]ncc12 [ALLOPURINOL] | Not Active | Not Active | Not Active | Not Active | Not Active | Not Active | Not Active | Not Active | –
8 | NC(=O)CN1CCCC1=O | Not Active | Not Active | Not Active | Not Active | Not Active | Not Active | Not Active | Not Active | –
9 | C=CCO [ALLYL ALCOHOL] | Not Active | Not Active | Not Active | Not Active | Not Active | Not Active | Not Active | Not Active | –
10 | CCN1CCN(C(=O)N[C@@H](C(=O)N[C@@H]2C(=O)N3[C@@H]2SC(C)(C)[C@@H]3C(=O)O)c2ccccc2)C(=O)C1=O [PIPERACILLIN] | Not Active | Not Active | Not Active | Not Active | Not Active | Not Active | Not Active | Not Active | –
11 | CCCCCCNC(=O)n1cc(F)c(=O)[nH]c1=O [CARMOFUR] | Not Active | Not Active | Not Active | Not Active | Not Active | Not Active | Not Active | Not Active | –
12 | CCN(CCO)CCCC(C)Nc1ccnc2cc(Cl)ccc12 (stereo not given) [HYDROXYCHLOROQUINE] | Not Active | Not Active | Not Active | Not Active | Not Active | Not Active | Not Active | Not Active | –
13 | Clc1cc(Cl)c(OCC#CI)cc1Cl [HALOPROGIN] | Not Active | Not Active | Not Active | Not Active | Not Active | Not Active | Not Active | Not Active | –
14 | O=c1[nH]cnc2c1ncn2[C@H]1CC[C@@H](CO)O1 [DIDANOSINE] | Not Active | Not Active | Not Active | Not Active | Not Active | Not Active | Not Active | Not Active | –
15 | Cl.NC[C@H]1CC[C@H](C(=O)Oc2ccc(CCC(=O)O)cc2)CC1 [CETRAXATE HYDROCHLORIDE] | Not Active | Not Active | Not Active | Not Active | Not Active | Not Active | Not Active | Not Active | –
16 | COc1cc([C@@H]2c3cc4c(cc3[C@H](O)[C@H]3COC(=O)[C@H]23)OCO4)cc(OC)c1OC [PODOFILOX] | Not Active | Not Active | Not Active | Not Active | Not Active | Not Active | Not Active | Not Active | –
17 | COc1cc(/C=C/C(=O)O)ccc1O [FERULATE] | Not Active | Not Active | Not Active | Not Active | Not Active | Not Active | Not Active | Not Active | –
18 | O=C(O)CCc1nc(-c2ccccc2)c(-c2ccccc2)o1 [OXAPROZIN] | Not Active | Not Active | Not Active | Not Active | Not Active | Not Active | Not Active | Not Active | –
19 | c1ccc(Cn2ccnc2)cc1 | Not Active | Not Active | Not Active | Not Active | Not Active | Not Active | Not Active | Not Active | –
20 | C[C@H]1C[C@H]2[C@@H]3CCC4=CC(=O)C=C[C@]4(C)[C@@]3(F)[C@@H](O)C[C@]2(C)[C@@]1(O)C(=O)CO [BETAMETHASONE] | Not Active | Not Active | Not Active | Not Active | Not Active | Not Active | Not Active | Not Active | –
21 | Nc1nc(N)c2nc(CNc3ccc(C(=O)N[C@@H](CCC(=O)O)C(=O)O)cc3)cnc2n1 [AMINOPTERIN] | Not Active | Not Active | Not Active | Not Active | Not Active | Not Active | Not Active | Not Active | –
22 | CC(=O)Nc1ccc2c(c1)Cc1ccccc1-2 [2-ACETYLAMINOFLUORENE] | Not Active | Not Active | Not Active | Not Active | Not Active | Not Active | Not Active | Not Active | –
23 | C=C(Cl)Cl [1,1-DICHLOROETHENE] | Not Active | Not Active | Not Active | Not Active | Not Active | Not Active | Not Active | Not Active | –
24 | C#C[C@]1(O)CC[C@H]2[C@@H]3CCC4=CC(=O)CC[C@@H]4[C@H]3CC[C@@]21C [NORETHINDRONE] | Not Active | Not Active | Not Active | Not Active | Not Active | Not Active | Not Active | Not Active | –
25 | CC[C@H]1OC(=O)[C@H](C)[C@@H](O[C@H]2C[C@@](C)(OC)[C@@H](O)[C@H](C)O2)[C@H](C)[C@@H](O[C@@H]2O[C@H](C)C[C@H](N(C)C)[C@H]2O)[C@](C)(O)C[C@@H](C)C(=O)[C@H](C)[C@@H](O)[C@]1(C)O [ERYTHROMYCIN] | Not Active | Not Active | Not Active | Not Active | Not Active | Not Active | Not Active | Not Active | –
26 | c1ccc2c(c1)Nc1ccccc1S2 [PHENOTHIAZINE] | Not Active | Not Active | Not Active | Not Active | Not Active | Not Active | Not Active | Not Active | –
27 | C[C@H](C(=O)O)c1ccc2oc(-c3ccc(F)cc3)nc2c1 [FLUNOXAPROFEN] | Not Active | Not Active | Not Active | Not Active | Not Active | Not Active | Not Active | Not Active | –
28 | CC1(COc2ccc(CC3SC(=O)NC3=O)cc2)CCCCC1 (stereo not given) [CIGLITAZONE] | Not Active | Not Active | Not Active | Not Active | Not Active | Not Active | – | Not Active | 4.66
29 | C=CCN1CC[C@]23c4c5ccc(O)c4O[C@H]2/C(=N/N=C2\CC[C@@]4(O)[C@H]6Cc7ccc(O)c8c7[C@@]4(CCN6CC=C)[C@H]2O8)CC[C@@]3(O)[C@H]1C5 [NALOXONAZINE] | Not Active | Not Active | Not Active | Not Active | Not Active | Not Active | Not Active | Not Active | –
30 | C[N+](C)(C)CCOP(=O)([O-])OC[C@H](O)CO | Not Active | Not Active | Not Active | Not Active | Not Active | Not Active | Not Active | Not Active | –
